These results are taken from patent US11590116B2 (THERAVANCE BIOPHARMA R&D IP, LLC, priority 2019, dated 2023).

Experiment [1] addresses T1, recombinant human ALK5 (TGF-βR1) protein (Homo sapiens, UniProt P36897).
T1 construct: purchased Life Technologies PR9075A
T1 sequence (P36897 34-503): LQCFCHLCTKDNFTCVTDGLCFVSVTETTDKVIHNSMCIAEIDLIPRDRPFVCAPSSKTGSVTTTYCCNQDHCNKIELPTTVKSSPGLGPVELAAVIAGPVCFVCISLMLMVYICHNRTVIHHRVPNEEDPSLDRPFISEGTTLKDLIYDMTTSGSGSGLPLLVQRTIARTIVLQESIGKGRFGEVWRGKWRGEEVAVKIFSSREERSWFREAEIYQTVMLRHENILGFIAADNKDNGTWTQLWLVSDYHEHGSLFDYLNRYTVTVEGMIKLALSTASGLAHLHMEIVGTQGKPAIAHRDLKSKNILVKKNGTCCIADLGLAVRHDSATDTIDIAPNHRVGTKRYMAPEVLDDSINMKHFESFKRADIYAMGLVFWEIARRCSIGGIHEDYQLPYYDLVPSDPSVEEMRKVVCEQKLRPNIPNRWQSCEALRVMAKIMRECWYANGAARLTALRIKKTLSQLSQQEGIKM
Kind of experiment: Biochemical ALK5 (TGF-βR1) assay to measure pKi (LANCE Ultra ULight kinase assay). The following applies: apparent pKi from pIC50 by Cheng-Prusoff, read-out: ALK5 pKi (converted). The gist of the method:
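Compounds (10 μM to 25 pM) preincubated 60 minutes at room temperature with enzyme, then reaction run 60 minutes at 37° C with ATP added as 125 μM (5× final). Stopped with EDTA plus Eu-anti-phospho-Topoisomerase 2-alpha (Thr1342) antibody, TR-FRET read at 665 nm; pIC50 converted to pKi via Cheng-Prusoff.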

In experiment [2] the test system is TGF-β-stimulated SMAD3 phosphorylation in BEAS-2B cells. As to the kind of experiment: Cellular ALK5 potency assay, inhibition of TGF-β stimulated pSMAD3 formation in BEAS-2B cells. Conditions: Homo sapiens; inhibition of TGF-β stimulated pSMAD3 formation, BEAS-2B cells; read-out: BEAS2B pIC50 (converted). The format is cell-based. The gist of the method: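 SMAD3 phosphorylation was measured by AlphaLISA after 30 min TGF-β stimulation (10 ng/mL final) of BEAS-2B cells preincubated 1 h with compound at 37 °C. Results given as pIC50.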

Regarding `Cc1cccc(-c2[nH]ncc2-c2ccc3ncc(C(=O)OCCN4CCNCC4)cc3n2)n1` [Compound 277, 2-piperazin-1-ylethyl 6-[5-(6-methyl-2-pyridyl)-1H-pyrazol-4-yl]-1,5-naphthyridine-3-carboxylate], the Ki in experiment [1] was 0.0398 to 0.316 nM. Also, the IC50 in experiment [2] was 200 to 1260 nM.

As to `CNc1cnc2ccc(-c3c(-c4cccc(C)n4)n[nH]c3OC)nc2c1` [Compound 507, 6-[5-methoxy-3-(6-methyl-2-pyridyl)-1H-pyrazol-4-yl]-N-methyl-1,5-naphthyridin-3-amine], the Ki in experiment [1] was 0.398 to 3.16 nM. Further, the IC50 in experiment [2] was 200 to 1260 nM.

With `Cc1cccc(-c2[nH]cnc2-c2ccc3ncc(Nc4ccc(N5CCN(C(C)C)CC5)cn4)cc3n2)n1` [Compound 695, N-[5-(4-isopropylpiperazin-1-yl)-2-pyridyl]-6-[5-(6-methyl-2-pyridyl)-1H-imidazol-4-yl]-1,5-naphthyridin-3-amine], the Ki in experiment [1] is 0.0398 to 0.316 nM. For the same molecule, the IC50 in experiment [2] was 25.1 to 158 nM.

Take `Cc1cccc(-c2n[nH]cc2-c2ccc3ncc(-c4[nH]nc5c4CNCC5)cc3n2)n1` [Compound 489, 2-[3-(6-methyl-2-pyridyl)-1H-pyrazol-4-yl]-7-(4,5,6,7-tetrahydro-2H-pyrazolo[4,3-c]pyridin-3-yl)-1,5-naphthyridine]: the Ki in experiment [1] is 0.0398 to 0.316 nM. Further, in experiment [2], the IC50 was 200 to 1260 nM.

Turning to `Cc1cccc(-c2[nH]cnc2-c2ccc3ncc(NCCN4CC5(CC(N)C5)C4)cc3c2)n1` [Compound 715, N-[2-(6-amino-2-azaspiro[3.3]heptan-2-yl)ethyl]-6-[5-(6-methyl-2-pyridyl)-1H-imidazol-4-yl]quinolin-3-amine], the Ki in experiment [1] is 0.0398 to 0.316 nM. For the same molecule, the IC50 in experiment [2] was 200 to 1260 nM.

Consider `Cc1cccc(-c2[nH]ncc2-c2ccc3ncc(C(=O)OC[C@H]4CCCCN4)cc3c2)n1` (racemic) [Compound 1194, [rac-(2R)-2-piperidyl]methyl 6-[5-(6-methyl-2-pyridyl)-1H-pyrazol-4-yl]quinoline-3-carboxylate], for which the Ki in experiment [1] was 0.0398 to 0.316 nM. Besides, the IC50 in experiment [2] was less than 20 nM.

Take `Cc1cccc(-c2[nH]ncc2-c2ccc3ncc(C(=O)O[C@H]4C[C@H](N)C4)cc3c2)n1` [Compound 1181, (3-aminocyclobutyl) 6-[5-(6-methyl-2-pyridyl)-1H-pyrazol-4-yl]quinoline-3-carboxylate]: the Ki in experiment [1] was 0.0398 to 0.316 nM. For the same molecule, the IC50 in experiment [2] is less than 20 nM.

Consider `CC(C)N1CCN(CCNc2cnc3ccc(-c4c[nH]nc4-c4cccc(C(F)F)n4)nc3c2)CC1` [Compound 226, 6-[3-[6-(difluoromethyl)-2-pyridyl]-1H-pyrazol-4-yl]-N-[2-(4-isopropylpiperazin-1-yl)ethyl]-1,5-naphthyridin-3-amine], for which, in experiment [1], the Ki is 0.0398 to 0.316 nM. The IC50 in experiment [2] is 25.1 to 158 nM.

On to `Cc1cccc(-c2[nH]cnc2-c2ccc3ncc(-c4ccc(C(=O)OCCN5CCNCC5)cn4)cc3c2)n1` [Compound 1025, 2-piperazin-1-ylethyl 6-[6-[5-(6-methyl-2-pyridyl)-1H-imidazol-4-yl]-3-quinolyl]pyridine-3-carboxylate], for which, in experiment [1], the Ki was 0.0398 to 0.316 nM. In addition, the IC50 in experiment [2] is 25.1 to 158 nM.

`Cc1nc(-c2n[nH]cc2-c2ccc3ncc(-c4cc5c(nn4)CCNC5)cc3n2)ccc1F` [Compound 289, 3-[6-[3-(5-fluoro-6-methyl-2-pyridyl)-1H-pyrazol-4-yl]-1,5-naphthyridin-3-yl]-5,6,7,8-tetrahydropyrido[4,3-c]pyridazine]: in experiment [1], the Ki was 0.398 to 3.16 nM. The IC50 in experiment [2] was 200 to 1260 nM.

On to `Cc1cccc(-c2[nH]cnc2-c2ccc3nccc(C(=O)OCCN4CCNCC4)c3c2)n1` [Compound 1121, 2-piperazin-1-ylethyl 6-[5-(6-methyl-2-pyridyl)-1H-imidazol-4-yl]quinoline-4-carboxylate], for which the Ki in experiment [1] is 0.398 to 3.16 nM. Besides, the IC50 in experiment [2] is 200 to 1260 nM.

`Cc1cccc(-c2[nH]ncc2-c2ccc3ncc(C(=O)OCCC4CNC4)cc3c2)n1` [Compound 1204, 2-(azetidin-3-yl)ethyl 6-[5-(6-methyl-2-pyridyl)-1H-pyrazol-4-yl]quinoline-3-carboxylate]: the Ki in experiment [1] is less than 0.0316 nM. Besides, the IC50 in experiment [2] was 25.1 to 158 nM.
